{"source": "patent US7368570B2", "about": "“Organometallic complexes as singlet oxygen sensitizers” (University of Southern California, priority 2003, dated 2008)", "key": {"[1]": {"assay": "singlet oxygen luminescence quenching rate constants", "format": "physicochemical", "details": "for kq singlet oxygen quenching rate: Table 3, not marked MeOD, TPP in benzene or chloroform", "method": "(§1) TPP in benzene or chloroform with OD 0.5-0.7 was used as blank/solvent solution to produce singlet oxygen. The intensity of ^1O2 luminescence signals was measured at 532 nm excitation in air-saturated solutions with a liquid nitrogen cooled germanium photodiode at 1268 nm. 0.02-0.5 mL quencher stock solution of Ir(III) complexes in […] was added to the blank solution. The decay trace of singlet oxygen was then re-measured, and the additions repeated 6-10 times. Singlet oxygen quenching rate constants by the Ir(III) complexes were obtained from the slopes of Stern Volmer plots (See FIG. 7)."}, "[2]": {"assay": "phosphorescence emission properties in solution", "format": "physicochemical", "details": "room temperature, from the phosphorescence spectrum", "text": "Table 3 provides quantum yields and singlet oxygen quenching rates for Ir(III) and Pt(II) complexes of this invention. Eem(eV)=the emission maximum energy in eV at room temperature, as determined from the phosphorescence spectrum; ΦPE=the quantum efficiency for emission in solution; τPE=the emission lifetime at room temperature or 77K (in solution)."}, "[3]": {"assay": "quantum yield for singlet oxygen production from 1O2 luminescence at 1268 nm", "format": "physicochemical", "details": "for ΦΔ quantum yield for singlet oxygen generation: benzene, air-saturated; for ΦΔ532 nm: only measured if compounds absorb at 532 nm", "text": "The quantum yields for singlet oxygen production (ΦΔ) were obtained by measuring the intensity of the ^1O2 luminescence signal (λmax=1268 nm). Measurements were taken with 355 and 532 nm excitation (λ), in air-saturated solutions.\nThe quantum yields were obtained by measuring the intensity of the ^1O2 luminescence signal (λmax=1268 nm), with a liquid nitrogen cooled germanium photodiode. Measurements were taken at 355 and 532 nm excitation, in air-saturated solutions, with TPP, C60 and Perinaphthenone as references. The optical density of the photosensitizer solutions was generally kept between 0.05 and 0.4 at 355 nm excitation wavelength, and 0.03 and 0.2 at 532 nm excitation wavelength."}, "[4]": {"details": "from references (footnote e), cited from earlier work; for λem: emission"}, "solubility": {"assay": "solubility", "format": "physicochemical", "method": "as §1"}, "[5]": {"assay": "oxidation and excited state redox potentials", "format": "physicochemical"}, "[6]": {"details": "355 nm, reference value; cited from earlier work"}, "[7]": {"details": "355 nm excitation, Table 3, not marked MeOD"}}, "data": [{"molecule": "iridium(III) bis(2-phenylbenzothiazolato-N, C^2)pyridyl chloride [BT-py]", "values": [{"measurement": "singlet oxygen quenching, in words", "setting": "[1]", "result": "no measurable singlet oxygen quenching"}, {"measurement": "kq(^1O2) singlet oxygen quenching rate", "setting": "[1]; benzene", "result": "None"}, {"measurement": "Eem emission maximum energy", "setting": "[2]", "result": 2.23, "unit": "eV"}, {"measurement": "singlet oxygen quantum yield / production, in words", "setting": "[3]", "result": "high quantum yield"}, {"measurement": "ΦΔ355 nm", "setting": "[3]; [7]", "result": "0.95 ± 0.09"}, {"measurement": "ΦΔ quantum yield for singlet oxygen generation", "setting": "[3]; 355 nm excitation", "result": "0.95 ± 0.09"}, {"measurement": "ΦΔ quantum yield for singlet oxygen generation", "setting": "[3]; 532 nm excitation", "result": "1.00 ± 0.09"}, {"measurement": "ΦΔ532 nm", "setting": "[3]; 532 nm excitation", "result": "1.00 ± 0.09"}, {"measurement": "λem", "setting": "[4]", "result": 558, "unit": "nm"}]}, {"molecule": "NCC(=O)[O][Ir]([c]1ccc2ccccc2c1-c1nc2ccccc2s1)[c]1ccc2ccccc2c1-c1nc2ccccc2s1", "note": "[BSN-G, iridium(III) bis(2-(1-naphthyl)benzothiazolato-N,C^2)glycinate]", "values": [{"measurement": "kq singlet oxygen quenching rate", "setting": "[1]", "result": "(2.1 ± 0.5) × 10^6 M^−1s^−1"}, {"measurement": "Eem emission maximum energy", "setting": "[2]", "result": 2.05, "unit": "eV"}, {"measurement": "ΦΔ355 nm", "setting": "[3]; [7]", "result": "0.54 ± 0.02"}, {"measurement": "ΦΔ quantum yield for singlet oxygen generation", "setting": "[3]; 355 nm excitation", "result": "0.54 ± 0.02"}, {"measurement": "ΦΔ355 nm", "setting": "[3]; 355 nm excitation, measured in MeOD", "result": "0.62 ± 0.05"}, {"measurement": "ΦΔ quantum yield for singlet oxygen generation", "setting": "[3]; 532 nm excitation", "result": "0.81 ± 0.06"}, {"measurement": "ΦΔ532 nm", "setting": "[3]; 532 nm excitation", "result": "0.81 ± 0.06"}, {"measurement": "λem", "setting": "[4]", "result": 606, "unit": "nm"}, {"measurement": "solubility remark", "setting": "solubility; line marked measured in MeOD", "result": "Not soluble"}]}, {"molecule": "CC(=O)C=C(C)[O][Ir]([c]1ccccc1-c1nc2ccccc2o1)[c]1ccccc1-c1nc2ccccc2o1", "note": "[(bo)2Ir(acac)]", "values": [{"measurement": "kq singlet oxygen quenching rate", "setting": "[1]", "result": "(1.8 ± 0.3) × 10^5 M^−1s^−1"}, {"measurement": "Eem emission maximum energy", "setting": "[2]", "result": 2.36, "unit": "eV"}, {"measurement": "ΦΔ355 nm", "setting": "[3]; [7]", "result": "0.76 ± 0.06"}, {"measurement": "λem", "setting": "[4]", "result": 525, "unit": "nm"}, {"measurement": "ΦPE quantum efficiency for emission in solution", "setting": "[4]", "result": 0.25}]}, {"molecule": "[CH3][Pt][CH3].c1ccc(-c2ccccn2)nc1", "note": "[(bpy)PtMe2]", "values": [{"measurement": "kq singlet oxygen quenching rate", "setting": "[1]", "result": "(2.4 ± 0.1) × 10^9 M^−1s^−1"}, {"measurement": "ΦΔ355 nm", "setting": "[3]; [7]", "result": 0}, {"measurement": "ΦΔ532 nm", "setting": "[3]; 532 nm excitation", "result": 0}]}, {"molecule": "CC(=Nc1cc(C)cc(C)c1)C(C)=Nc1cc(C)cc(C)c1.[CH3][Pt][CH3]", "note": "[(CyPh2)PtMe2]", "values": [{"measurement": "kq singlet oxygen quenching rate", "setting": "[1]", "result": "(1.5 ± 0.1) × 10^9 M^−1s^−1"}, {"measurement": "ΦΔ355 nm", "setting": "[3]; [7]", "result": 0}, {"measurement": "ΦΔ532 nm", "setting": "[3]; 532 nm excitation", "result": 0}]}, {"molecule": "c1ccc(-c2cccc[c]2[Ir]([c]2ccccc2-c2ccccn2)[c]2ccccc2-c2ccccn2)nc1", "note": "[(ppy)3Ir, Tris-(2-phenylpyridinato, N, C^2′) iridium (III)]", "values": [{"measurement": "ΦΔ355 nm", "setting": "[3]; [7]", "result": "0.92 ± 0.07"}, {"measurement": "E(Sen^+/*) excited state redox potential", "setting": "[5]; vs. NHE, E00 estimated using Eem", "result": "−1.45", "unit": "V"}, {"measurement": "E(Sen^+/0) oxidation potential", "setting": "[5]; vs. ferrocene/ferrocenium", "result": 0.32, "unit": "V"}, {"measurement": "solubility remark", "setting": "solubility; Table 3, not marked MeOD", "result": "Not soluble"}]}, {"molecule": "CC1=CC(c2ccccc2)=c2ccc3c4c2[N]1[Pt]([CH3])([CH3])[N]4C(C)=CC=3c1ccccc1", "note": "[(PhenPh2)PtMe2]", "values": [{"measurement": "kq singlet oxygen quenching rate", "setting": "[1]", "result": "(1.7 ± 0.2) × 10^9 M^−1s^−1"}, {"measurement": "ΦΔ355 nm", "setting": "[3]; [7]", "result": 0}, {"measurement": "ΦΔ532 nm", "setting": "[3]; 532 nm excitation", "result": 0}]}, {"molecule": "c12c3c4c5c1c1c6c7c2c2c8c3c3c9c4c4c%10c5c5c1c1c6c6c%11c7c2c2c7c8c3c3c8c9c4c4c9c%10c5c5c1c1c6c6c%11c2c2c7c3c3c8c4c4c9c5c1c1c6c2c3c41", "note": "[Photosensitizer C60]", "values": [{"measurement": "ΦΔ of reference for quantum yield measurements", "setting": "[6]", "result": 0.76}]}, {"molecule": "O=C1C=Cc2cccc3cccc1c23", "note": "[Perinaphthenone]", "values": [{"measurement": "ΦΔ of reference for quantum yield measurements", "setting": "[6]", "result": 0.95}]}, {"molecule": "[CH3][Pt]1([CH3])[N]2C=CC=c3ccc4c(c32)[N]1C=CC=4", "note": "[(Phen)PtMe2]", "values": [{"measurement": "kq singlet oxygen quenching rate", "setting": "[1]", "result": "(2.0 ± 0.2) × 10^9 M^−1s^−1"}, {"measurement": "ΦΔ355 nm", "setting": "[3]; [7]", "result": 0}, {"measurement": "ΦΔ532 nm", "setting": "[3]; 532 nm excitation", "result": 0}]}]}
